Assay results as given in paper PMC12567082, “Silver(I) Complexes Bearing S-Alkyl Thiosalicylic Acid Derivatives: DNA/BSA Binding and Antitumor Activity In Vitro and In Vivo” (Pharmaceutics, 2025).

Tests used:
CT-DNA [1] = system: CT-DNA; parameters: method as in PMID 25350363; details: cited from earlier work
[2] = system: mouse colon cancer (CT26); test: MTT assay CT26; assay type: cell-based
Procedure: (§1) Mouse breast cancer (4T1), human breast cancer (MDA-MB-468), mouse colon cancer (CT26), human colon cancer (HCT-116), mouse lung cancer (LLC1), human lung cancer (A549), mouse mesenchymal stem cells (mMSC), and human fibroblast cell lines (MRC-5) were used in this study and were consistently cultured in complete Dulbecco’s Modified Eagle Medium (DMEM) (Sigma-Aldrich, St. Louis, MO, USA) in incubator (5% CO2) under standard conditions. Complete DMEM was Dulbecco’s Modified Eagle Medium supplemented with 10% fetal bovine serum (FBS), 1 mmol/L penicillin–streptomycin, 1 mmol/L mixed nonessential amino acids, and 2 mmol/L L-glutamine (Sigma-Aldrich, St. Louis, MO, USA). All cancer cell lines and MRC-5 cell line were obtained from American Type Culture Collection (ATCC, Manassas, VA, USA), but mMSC was manufactured by Gibco (Middlesex County, MA, USA).
(§2) In 96-well microplates, we seeded cancer and non-cancer cells, more exactly 5 × 10^3 cells per well in 100 μL of complete DMEM (Sigma-Aldrich, St. Louis, MO, USA). […] Tested concentration range for all metal-based substances was 3.9–500 μM. After incubation with MTT solution (5 mg/mL; pH 7.2) for 4 h, optical density was determined using Zenyth 3100 microplate multimode detector (Salzburg, Austria). All experiments were performed three times, each in triplicate, and the IC50 values as well as selectivity indexes (IC50 for mMSC or MRC-5/IC50 for mouse or human cancer cells) were calculated.

[3] = system: Mouse breast cancer (4T1); test: MTT assay 4T1; assay type: cell-based
Procedure: as §1, §2

[4] = system: human fibroblast cell lines (MRC-5); test: MTT assay MRC-5; assay type: cell-based
Procedure: as §1, §2

human lung cancer (A549) = test: MTT assay A549; assay type: cell-based
Procedure: as §1, §2

[5] = system: human colon cancer (HCT-116); test: MTT assay HCT116; assay type: cell-based
Procedure: as §1, §2

BALB/C female mice = test: In vivo toxicity (serum biochemistry, liver and kidney histology); details: 6 mg/kg, H&E, day 30
Procedure: (§3) Ethics Committee of the Faculty of Medical Sciences of the University of Kragujevac, Serbia, approved all experiments (01-5301/11). ARRIVE guidelines and EU Directive 2010/63/EU for animal experiments were followed. Experimental animals, BALB/C female mice (8–10 weeks old), were housed under standard conditions (temperature-controlled environment, a 12 h light–dark cycle, fed ad libitum, and observed daily) throughout whole duration of experiment. Animals were inoculated with 4T1 cells (3 × 10^4) into the fourth mammary fat pad as previously described. Animals were randomly assigned to experimental or control groups, and after palpable tumors were detected, the pharmacological treatments were started. Female BALB/C mice intraperitoneally received either C3 (3 mg/kg), C3 (6 mg/kg), CDDP (6 mg/kg), or vehicle in distilled water with 0.05% DMSO (Sigma-Aldrich, St. Louis, MO, USA) (untreated group) in five single doses every third day (8 animals per group). Using electronic calipers (Moore and Wright, Sheffield, UK), the sizes of primary 4T1 mammary tumors were morphometrically evaluated. On the 30th day of experiment, animals were sacrificed, blood was collected (for determination of serum levels of ALT, AST, urea, and creatinine), and tissue sections (liver and kidney) were stained with H&E for further analysis. Liver or kidney sections were analyzed by two observers, and the injury levels were determined as previously reported.

mouse lung cancer (LLC1) = test: MTT assay LLC1; assay type: cell-based
Procedure: as §1, §2

4T1 mammary tumors = test: Breast cancer development in vivo (orthotopic 4T1); parameters: species or system BALB/C female mice; details: 6 mg/kg i.p., five single doses every third day, after day 18
Procedure: as §3

[6] = system: mouse mesenchymal stem cells (mMSC); test: MTT assay mMSC; assay type: cell-based; details: 24 h
Procedure: as §1, §2

[7] = system: human breast cancer (MDA-MB-468); test: MTT assay MDA-MB-468; assay type: cell-based
Procedure: as §1, §2

CT-DNA [8] = test: EB–CT-DNA fluorescence quenching; assay type: binding, calf; details: EB–CT-DNA 8.52 × 10^−5 M, PBS pH 7.4
Procedure: All samples were prepared in phosphate-buffered saline (PBS, pH 7.4). Stern–Volmer Equation (2) was used to interpret the fluorescence quenching data.

BSA = biological target: T1, BSA (Bos taurus, UniProt P02769); test: BSA tryptophan fluorescence quenching; assay type: binding, bovine
T1 construct: purchased Sigma-Aldrich
Procedure: The protein binding study was carried out using tryptophan fluorescence quenching experiments with BSA. […] Fluorescence emission spectra were recorded between 300 and 500 nm, with excitation at 295 nm.
The quenching constant Ksv was determined based on the Stern–Volmer relationship, as described by Equation (3):I0/I = 1 + kqτ0[Q] = 1 + Ksv[Q](3)
In this equation, I0 and I refer to the fluorescence intensities of BSA measured without and with the quencher (complex), τ0 represents the average fluorescence lifetime of free BSA (∼10^−8 s), and [Q] indicates the quencher concentration.
Parameters such as association binding constant (K) and the number of binding sites per albumin (n) were obtained from Scatchard Equation (4):(ΔI/I0)/[Q] = nK − KΔI/I0(4)
To minimize inner filter, both intensities of fluorescence originating from excitation and emission light absorption and re-absorption were corrected by employing Equation (5); Icor and Iobs are the corrected and observed fluorescence intensities, respectively, and Aex and Aem represent the absorbance of the metal complex at the excitation and emission wavelengths, respectively.Icor = Iobs · […]^(Aex + Aem)/2(5)

CT-DNA [9] = test: UV-Vis absorption titration with CT-DNA; assay type: binding, calf; details: ΔG = −RT lnKb
Procedure: All DNA-binding studies were conducted in 0.01 M phosphate-buffered saline (PBS, pH 7.40) at 25 °C. […] To eliminate absorbance from CT-DNA, identical amounts of DNA were added to both the test and reference solutions prior to spectral recording.
Intrinsic binding constants (Kb) were calculated using the equation to determine the DNA-binding affinities of the complexes (1):[DNA]/(εa − εf) = [DNA]/(εb − εf) + 1 [Kb(εb − εf)](1)
[DNA] represents the concentration of DNA; apparent extinction coefficient, εa, was calculated as the ratio of the observed absorbance to the concentration of the complex (Aobs/[complex]); and εb and εf correspond to the extinction coefficients of the complex in the fully bound and free forms, respectively. Kb was determined from the ratio of the slope to the intercept obtained from the corresponding linear plots.

T1 sequence (P02769 25-607): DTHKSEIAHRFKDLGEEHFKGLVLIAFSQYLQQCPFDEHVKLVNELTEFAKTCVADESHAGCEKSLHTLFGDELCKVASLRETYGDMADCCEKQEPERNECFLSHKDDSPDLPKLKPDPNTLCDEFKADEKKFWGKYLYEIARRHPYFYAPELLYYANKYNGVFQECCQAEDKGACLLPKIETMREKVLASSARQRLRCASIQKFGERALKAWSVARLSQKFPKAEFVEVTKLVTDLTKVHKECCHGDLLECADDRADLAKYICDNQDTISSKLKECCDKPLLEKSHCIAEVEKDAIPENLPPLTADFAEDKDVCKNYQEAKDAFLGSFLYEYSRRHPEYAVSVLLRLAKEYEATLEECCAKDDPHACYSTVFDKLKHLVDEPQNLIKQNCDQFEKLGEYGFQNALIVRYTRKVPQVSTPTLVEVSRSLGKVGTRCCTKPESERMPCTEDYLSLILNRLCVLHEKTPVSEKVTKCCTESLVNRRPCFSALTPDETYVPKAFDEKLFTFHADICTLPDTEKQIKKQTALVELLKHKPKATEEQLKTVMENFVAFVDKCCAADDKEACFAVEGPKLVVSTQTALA

CC[n+]1c(-c2ccccc2)c2cc(N)ccc2c2ccc(N)cc21.[Br-] [ethidium bromide, 3,8-diamino-5-ethyl-6-phenylphenanthridinium bromide]
Kb (CT-DNA [1]): (1.23 ± 0.07) × 10^5 M^−1

CCSc1ccccc1C(=O)O [L2, S-ethyl derivative of thiosalicylic]
IC50 ([2]; CT26, 48 h): 465 ± 39.5 µM | IC50 ([3]; 4T1, 48 h): 500 ± 7.6 µM | IC50 ([4]; MRC-5, 48 h): 384 ± 20.5 µM

CCCSc1ccccc1C(=O)O [L3, S-propyl derivative of thiosalicylic acid]
IC50 (human lung cancer (A549); A549, 48 h): 500 ± 47.3 µM | IC50 ([3]; 4T1, 48 h): 500 ± 30.5 µM

CSc1ccccc1C(=O)O [L1, S-methyl derivative of thiosalicylic acid]
IC50 ([3]; 4T1, 48 h): 443 ± 30.5 µM | IC50 ([4]; MRC-5, 48 h): 488 ± 41.6 µM

[NH2][Pt]([NH2])([Cl])[Cl] [CDDP, cisplatin, reference compound]
IC50 ([5]; HCT 116, 24 h): 63.3 ± 3.21 µM | IC50 ([5]; HCT 116, 48 h): 15.8 ± 1.28 µM | Selectivity Index (IC50 mMSC or MRC-5/ IC50 Cancer Cell) ([5]; HCT-116, 24 h): 0.64 | Selectivity Index (IC50 mMSC or MRC-5/ IC50 Cancer Cell) ([5]; HCT-116, 48 h): 1.73 | IC50 ([2]; CT26, 24 h): 16.9 ± 1.42 µM | Selectivity Index (IC50 mMSC or MRC-5/ IC50 Cancer Cell) ([2]; CT26, 24 h): 1.01 | liver changes (histopathology) (BALB/C female mice): piecemeal necrosis, focal lytic necrosis, and portal inflammation | IC50 (mouse lung cancer (LLC1); LLC1, 24 h): 21.8 ± 1.11 µM | Selectivity Index (IC50 mMSC or MRC-5/ IC50 Cancer Cell) (mouse lung cancer (LLC1); LLC1, 24 h): 0.79 | tumor growth compared to the untreated group (4T1 mammary tumors): significantly slower | IC50 [6]: 17.1 ± 1.15 µM | IC50 (human lung cancer (A549); A549, 24 h): 23.2 ± 1.77 µM | Selectivity Index (IC50 mMSC or MRC-5/ IC50 Cancer Cell) (human lung cancer (A549); A549, 24 h): 1.74 | IC50 (human lung cancer (A549); A549, 48 h): 14 ± 1.44 µM | Selectivity Index (IC50 mMSC or MRC-5/ IC50 Cancer Cell) (human lung cancer (A549); A549, 48 h): 1.95 | IC50 ([7]; MDA-MB-468, 24 h): 4.06 ± 0.97 µM | Selectivity Index (IC50 mMSC or MRC-5/ IC50 Cancer Cell) ([7]; MDA-MB-468, 24 h): 9.98 | IC50 ([3]; 4T1, 24 h): 12 ± 1.98 µM | Selectivity Index (IC50 mMSC or MRC-5/ IC50 Cancer Cell) ([3]; 4T1, 24 h): 1.43 | IC50 ([3]; 4T1, 48 h): 5.17 ± 0.98 µM | IC50 ([4]; MRC-5, 24 h): 40.5 ± 0.57 µM | IC50 ([4]; MRC-5, 48 h): 27.4 ± 0.72 µM

CCCCSc1ccccc1C(=O)O [L4, S-butyl derivative of thiosalicylic]
IC50 ([2]; CT26, 48 h): 368 ± 58.3 µM | IC50 (human lung cancer (A549); A549, 24 h): 494.9 ± 3.58 µM | IC50 (human lung cancer (A549); A549, 48 h): 490 ± 22 µM | IC50 ([7]; MDA-MB-468, 48 h): 408 ± 12.7 µM | IC50 ([3]; 4T1, 24 h): 407 ± 35.1 µM | IC50 ([3]; 4T1, 48 h): 417 ± 61.4 µM

[Ag2(S-Methyl-Thiosal)2] [C1]
Ksv EB (Stern–Volmer constant) (CT-DNA [8]): (6.0 ± 0.1) × 10^3 M^−1 | kq (quenching rate constant) (BSA; BSA 2 µM): (1.7 ± 0.1) × 10^13 M^−1 s^−1 | Ksv (Stern–Volmer constant) (BSA; BSA 2 µM, λex 295 nm): (1.7 ± 0.1) × 10^5 M^−1 | K (binding constant) (BSA; Scatchard equation): (1.7 ± 0.1) × 10^5 M^−1 | n (number of binding sites) (BSA; Scatchard equation): 0.8 | IC50 (mouse lung cancer (LLC1); LLC1, 24 h): 39.8 ± 1.07 µM | IC50 (mouse lung cancer (LLC1); LLC1, 48 h): 32 ± 1.47 µM | IC50 (human lung cancer (A549); A549, 24 h): 58.3 ± 1.91 µM | Selectivity Index (IC50 mMSC or MRC-5/ IC50 Cancer Cell) (human lung cancer (A549); A549, 24 h): 0.79 | IC50 (human lung cancer (A549); A549, 48 h): 48.6 ± 1.06 µM | Selectivity Index (IC50 mMSC or MRC-5/ IC50 Cancer Cell) (human lung cancer (A549); A549, 48 h): 1.10 | IC50 ([7]; MDA-MB-468, 24 h): 4.19 ± 0.98 µM | Selectivity Index (IC50 mMSC or MRC-5/ IC50 Cancer Cell) ([7]; MDA-MB-468, 24 h): 11.05 | IC50 ([7]; MDA-MB-468, 48 h): 4.37 ± 0.41 µM | Selectivity Index (IC50 mMSC or MRC-5/ IC50 Cancer Cell) ([7]; MDA-MB-468, 48 h): 12.18 | IC50 ([3]; 4T1, 48 h): 4 ± 0.95 µM | IC50 ([4]; MRC-5, 24 h): 46.3 ± 1.52 µM | IC50 ([4]; MRC-5, 48 h): 53.2 ± 1.27 µM | ΔG (Gibbs free energy) (CT-DNA [9]): -6.64 kcal/mol
